Assay results from patent publication US9096593B2, “Compounds and methods for kinase modulation, and indications therefor” (Plexxikon Inc., priority 2009, dated 2015).

Assays:
BCR-KIT/BaF3 cells = BCR-KIT/BaF3 cells (Homo sapiens, UniProt P10721); assay: BCR-KIT/BaF3 cell proliferation assay (ATPlite); type: cell-based; conditions: read-out: BCR/BaF3 (IC50 μM) Kit
Method: Compounds are assessed in a variety of cell based assays. For example BCR-FMS/BaF3, BCR-KIT/BaF3, M-NFS-60, M-07e, and BAC1.2F5 cell proliferation assays are used to assess inhibitory activity of Fms or Kit and MV-4-11 cell proliferation assay is used to assess inhibitory activity in Flt-3. Reagent and assay conditions are as follows: • BCR-FMS/BaF3 and BCR-KIT/BaF3 cells: • Maintained in RPMI containing 10% FBS, 1% PenStrep, 1% NEAA, and 1% L-Glutamine, supplemented with 1 mg/mL G418 and 5% WEHI-CM (or recombinant murine IL-3). • Confluent cells are split 1:50 to 1:100 every 3-4 days. • M-NFS-60 cells (ATCC #CRL-1838): • Maintained in RPMI containing 10% FBS, 1% Hepes, 1% NaPyruvate, and 0.45% Glucose, supplemented with 62 ng/mL murine M-CSF. • Confluent cells are split 1:20 every 3-4 days. • M-07e cells (DSMZ #ACC 104): • Maintained in IMDM containing 10% FBS, supplemented with either 200 ng/mL human SCF or […] SCF (R&D Systems 255-SC). • Confluent cells are split 1:5 to 1:10 every 3-4 days. • BAC1.2F5 cells: • Maintained in Alpha-MEM containing 10% Newborn Calf Serum (Invitrogen #26010-074) supplemented with 36 ng/mL murine M-CSF. • Confluent cells are split 1:4 every 3-4 days. • MV-4-11 cells: • Maintained in Iscove's Modified Dulbecco's Medium containing 10% FBS. • Confluent cells are split 1:4 every 3-4 days. On day 1, cells are counted, then centrifuged in a conical tube for 5 minutes at 1000 rpm. The supernatant is removed and cells are re-suspended as follows: • BCR-FMS/BaF3 and BCR-KIT/BaF3: resuspend in growth media+1 mg/mL G418 (without WEHI/IL-3) to 2×10^5 cells/mL. • M-NFS-60: resuspend in growth media +62 ng/mL murine M-CSF to 5×10^5 cells/mL. • M-07e: resuspend in growth media +200 ng/mL human SCF to 5×10^5 cells/mL. • BAC1.2F5: resuspend in growth media +36 ng/mL murine M-CSF to 1.4×10^5 cells/mL. • MV-4-11: resuspend in growth media +10% FBS to 5×10^5 cells/mL. The cells are plated (50 μL) in each well of a 96-well dish (Corning 3610) and incubated at 37° C. in 5% CO2 overnight, cells plated to a final concentration of cells as follows: • BCR-FMS/BaF3 and BCR-KIT/BaF3: 10,000 cells per well. • M-NFS-60: 25,000 cells per well. • M-07e: 25,000 cells per well. • BAC1.2F5: 7,000 cells per well. • MV-4-11: 25,000 cells per well. On day 2, compound at a maximum concentration of 5 mM is serially diluted 1:3 for a total of 8 point titration with DMSO as a control. A 1 μL aliquot of each dilution point is added to 249 μL growth media and 50 μL is added to a well containing cells, providing 10 μM compound for the maximum concentration point. The cells are incubated for 3 days at 37° C. in 5% CO2. On day 5, ATPlite 1 step Luminescence Assay System (Perkin Elmer #6016739) is brought to room temperature along with the cell cultures. ATPlite is added to each well as follows: • BCR-FMS/BaF3 and BCR-KIT/BaF3: 25 μL per well. • M-NFS-60: 25 μL per well. • M-07c: 40 μL per well. • BAC1.2F5: 50 μL per well. • MV-4-11: 40 μL per well. The cells are incubated at room temperature for 10 minutes, then luminescence is read on Safire reader. The measured luminescence correlates directly with cell number, such that the reading as a function of compound concentration is used to determine the IC50 value.

[1] = Turbidity assay of relative solubility in aqueous buffers; type: physicochemical; conditions: for turbidity threshold (L, M, H) 1.4: pH 1.4 as headed (method: SGF pH 1.5); for turbidity threshold (L, M, H) 4.5: pH 4.5 (SIF); for turbidity threshold (L, M, H) 6.8: pH 6.8 (SIF); for turbidity threshold (L, M, H) 7.4: pH 7.4 (HEPES)
Summary of the method: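 Turbidity was read spectrophotometrically at 490, 535 and 650 nm, and the endpoint is the concentration where OD passes 0.01, as the mean of the three wavelengths. Compounds came from 25 mM DMSO stock in 1:1 serial dilutions, added to HEPES pH 7.4, SIF pH 6.8 or 4.5 (0.05M NaH2PO4), or SGF pH 1.5 (0.5M NaCl).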

Chain of BCR-KIT/BaF3 cells (P10721 26-976 limits assumed, change not shown): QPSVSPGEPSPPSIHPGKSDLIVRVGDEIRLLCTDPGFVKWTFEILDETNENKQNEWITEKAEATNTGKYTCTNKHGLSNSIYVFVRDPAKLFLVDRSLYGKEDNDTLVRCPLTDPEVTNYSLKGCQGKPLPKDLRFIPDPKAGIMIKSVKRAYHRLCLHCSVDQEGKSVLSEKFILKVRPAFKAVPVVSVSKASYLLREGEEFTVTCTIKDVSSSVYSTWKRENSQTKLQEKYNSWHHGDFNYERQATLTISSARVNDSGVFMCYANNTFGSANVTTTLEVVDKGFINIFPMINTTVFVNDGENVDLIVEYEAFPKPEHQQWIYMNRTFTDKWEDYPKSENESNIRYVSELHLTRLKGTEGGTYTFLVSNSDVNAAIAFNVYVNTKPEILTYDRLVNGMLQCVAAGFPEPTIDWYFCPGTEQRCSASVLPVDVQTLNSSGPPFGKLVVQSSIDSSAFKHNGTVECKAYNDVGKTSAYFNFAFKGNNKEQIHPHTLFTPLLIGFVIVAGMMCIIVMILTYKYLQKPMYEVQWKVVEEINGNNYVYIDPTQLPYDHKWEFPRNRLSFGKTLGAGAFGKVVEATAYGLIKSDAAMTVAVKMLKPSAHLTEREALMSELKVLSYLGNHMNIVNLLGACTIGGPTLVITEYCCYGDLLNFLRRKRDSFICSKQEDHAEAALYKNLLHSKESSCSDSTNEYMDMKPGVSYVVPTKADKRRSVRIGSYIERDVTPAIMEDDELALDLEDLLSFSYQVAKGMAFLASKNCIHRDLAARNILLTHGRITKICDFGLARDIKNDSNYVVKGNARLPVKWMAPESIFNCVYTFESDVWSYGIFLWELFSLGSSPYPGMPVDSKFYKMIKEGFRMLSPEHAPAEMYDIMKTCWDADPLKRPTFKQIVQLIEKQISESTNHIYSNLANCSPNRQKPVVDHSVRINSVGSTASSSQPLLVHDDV

| Structure (SMILES) | IC50 (BCR-KIT/BaF3 cells) | turbidity threshold (L, M, H) 1.4 [1] | turbidity threshold (L, M, H) 4.5 [1] | turbidity threshold (L, M, H) 6.8 [1] | turbidity threshold (L, M, H) 7.4 [1] |
| --- | --- | --- | --- | --- | --- |
| COc1ccc(CNc2ncc(Cc3c[nH]c4ncc(C)cc34)cc2C)cn1 [Compound P-1554, (6-Methoxy-pyridin-3-ylmethyl)-[3-methyl-5-(5-methyl-1H-pyrrolo[2,3-b]pyridin-3-ylmethyl)-pyridin-2-yl]-amine] | > 0.1 µM | H (high solubility if the threshold concentration is >250 μM) | H (high solubility if the threshold concentration is >250 μM) | M (moderate solubility if the threshold concentration is 31.3 μM to 250 μM) | M (moderate solubility if the threshold concentration is 31.3 μM to 250 μM) |
| COc1ccc(CNc2ncc(Cc3c[nH]c4ncc(C)cc34)cc2F)cn1 [Compound P-1562, [3-Fluoro-5-(5-methyl-1H-pyrrolo[2,3-b]pyridin-3-ylmethyl)-pyridin-2-yl]-(6-methoxy-pyridin-3-ylmethyl)-amine] | > 0.1 µM | H (high solubility if the threshold concentration is >250 μM) | H (high solubility if the threshold concentration is >250 μM) | M (moderate solubility if the threshold concentration is 31.3 μM to 250 μM) | M (moderate solubility if the threshold concentration is 31.3 μM to 250 μM) |
| COc1ccc(CNc2ccc(Cc3c[nH]c4ncc(F)cc34)c(F)n2)cn1 [Compound P-1622, [6-Fluoro-5-(5-fluoro-1H-pyrrolo[2,3-b]pyridin-3-ylmethyl)-pyridin-2-yl]-(6-methoxy-pyridin-3-ylmethyl)-amine] | > 0.1 µM | H (high solubility if the threshold concentration is >250 μM) | M (moderate solubility if the threshold concentration is 31.3 μM to 250 μM) | M (moderate solubility if the threshold concentration is 31.3 μM to 250 μM) | M (moderate solubility if the threshold concentration is 31.3 μM to 250 μM) |
| COc1ncc(F)cc1CNc1ccc(Cc2c[nH]c3ncc(NC(C)=O)cc23)c(F)n1 [Compound P-1669, N-(3-{2-fluoro-6-[(5-fluoro-2-methoxy-pyridin-3-ylmethyl)-amino]-pyridin-3-ylmethyl}-1H-pyrrolo[2,3-b]pyridin-5-yl)-acetamide] | > 0.1 µM | M (moderate solubility if the threshold concentration is 31.3 μM to 250 μM) | M (moderate solubility if the threshold concentration is 31.3 μM to 250 μM) | M (moderate solubility if the threshold concentration is 31.3 μM to 250 μM) | M (moderate solubility if the threshold concentration is 31.3 μM to 250 μM) |
| CS(=O)(=O)Nc1cnc2[nH]cc(Cc3ccc(NCc4ccc(Cl)nc4)nc3F)c2c1 [Compound P-1679, N-(3-{6-[(6-Chloro-pyridin-3-ylmethyl)-amino]-2-fluoro-pyridin-3-ylmethyl}-1H-pyrrolo[2,3-b]pyridin-5-yl)-methanesulfonamide] | > 0.1 µM | M (moderate solubility if the threshold concentration is 31.3 μM to 250 μM) | L (low solubility if the threshold concentration is <31.3 μM) | L (low solubility if the threshold concentration is <31.3 μM) | L (low solubility if the threshold concentration is <31.3 μM) |
| Fc1cncc(CNc2ccc(Cc3c[nH]c4ncc(Cl)cc34)c(F)n2)c1 [Compound P-2001, [5-(5-Chloro-1H-pyrrolo[2,3-b]pyridin-3-ylmethyl)-6-fluoro-pyridin-2-yl]-(5-fluoro-pyridin-3-ylmethyl)-amine] | > 0.1 µM | M (moderate solubility if the threshold concentration is 31.3 μM to 250 μM) | L (low solubility if the threshold concentration is <31.3 μM) | L (low solubility if the threshold concentration is <31.3 μM) | L (low solubility if the threshold concentration is <31.3 μM) |
| Clc1cnc2[nH]cc(Cc3ccc(NCc4ccc(Cl)nc4)nc3)c2c1 [Compound P-2003] | < 0.1 µM | H (high solubility if the threshold concentration is >250 μM) | M (moderate solubility if the threshold concentration is 31.3 μM to 250 μM) | L (low solubility if the threshold concentration is <31.3 μM) | L (low solubility if the threshold concentration is <31.3 μM) |
| Fc1ccc(CNc2ccc(Cc3c[nH]c4ncc(Cl)cc34)cn2)cn1 [Compound P-2004, [5-(5-chloro-1H-pyrrolo[2,3-b]pyridin-3-ylmethyl)-pyridin-2-yl]-(6-fluoro-pyridin-3-ylmethyl)-amine] | < 0.1 µM | H (high solubility if the threshold concentration is >250 μM) | M (moderate solubility if the threshold concentration is 31.3 μM to 250 μM) | M (moderate solubility if the threshold concentration is 31.3 μM to 250 μM) | M (moderate solubility if the threshold concentration is 31.3 μM to 250 μM) |
| Cc1cnc2[nH]cc(Cc3ccc(NCc4ccc(C(F)(F)F)nc4)nc3)c2c1 [Compound P-2019, [5-(5-Methyl-1H-pyrrolo[2,3-b]pyridin-3-ylmethyl)-pyridin-2-yl]-(6-trifluoromethyl-pyridin-3-ylmethyl)-amine] | < 0.1 µM | H (high solubility if the threshold concentration is >250 μM) | M (moderate solubility if the threshold concentration is 31.3 μM to 250 μM) | M (moderate solubility if the threshold concentration is 31.3 μM to 250 μM) | L (low solubility if the threshold concentration is <31.3 μM) |
| COc1cccc(CNc2ncc(Cc3c[nH]c4ncc(Cl)cc34)s2)n1 [Compound P-2163, [5-(5-Chloro-1H-pyrrolo[2,3-b]pyridin-3-ylmethyl)-thiazol-2-yl]-(6-methoxy-pyridin-2-ylmethyl)-amine] | > 0.1 µM |  |  |  |  |
| Fc1cncc(CNc2ncc(Cc3c[nH]c4ncc(Cl)cc34)cn2)c1 [Compound P-2176, [5-(5-Chloro-1H-pyrrolo[2,3-b]pyridin-3-ylmethyl)-pyrimidin-2-yl]-(5-fluoro-pyridin-3-ylmethyl)-amine] | > 0.1 µM |  |  |  |  |
| CCS(=O)(=O)Nc1cc(F)cc(CNc2ccc(Cc3c[nH]c4ncc(C)cc34)c(F)n2)c1 [Compound P-2202, Ethanesulfonic acid (3-fluoro-5-{[6-fluoro-5-(5-methyl-1H-pyrrolo[2,3-b]pyridin-3-ylmethyl)-pyridin-2-ylamino]-methyl}-phenyl)-amide] | > 0.1 µM |  |  |  |  |
